Assay results: ChEMBL document CHEMBL1201862, “PubChem BioAssay data set” (2004)
Active and inactive are the calls of the source.

What was measured:
[1] = target: T1, Scavenger receptor class B member 1 (Mus musculus, UniProt Q61009); experiment: mouse SR-BI DiI-HDL transfer blockers – ldlA[mSR-BI] CHO cells, fluorescence plate reader, dry powder, set 9, dose response (AID 623880); type: functional, cell-based
T1 sequence (Q61009 whole entry): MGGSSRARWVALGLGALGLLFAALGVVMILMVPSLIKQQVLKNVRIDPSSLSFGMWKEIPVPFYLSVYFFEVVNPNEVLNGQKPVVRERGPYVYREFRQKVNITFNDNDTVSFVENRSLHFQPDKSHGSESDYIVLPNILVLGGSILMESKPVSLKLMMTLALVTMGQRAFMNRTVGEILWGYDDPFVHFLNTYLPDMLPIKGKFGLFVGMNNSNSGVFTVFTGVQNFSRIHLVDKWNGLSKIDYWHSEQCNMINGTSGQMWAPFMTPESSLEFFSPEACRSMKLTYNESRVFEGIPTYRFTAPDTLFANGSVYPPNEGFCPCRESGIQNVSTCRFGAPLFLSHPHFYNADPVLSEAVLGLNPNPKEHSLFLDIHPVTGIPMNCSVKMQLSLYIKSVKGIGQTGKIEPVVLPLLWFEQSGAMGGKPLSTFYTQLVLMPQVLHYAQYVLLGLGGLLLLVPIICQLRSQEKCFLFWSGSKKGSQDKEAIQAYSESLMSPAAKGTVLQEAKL

[2] = target: T1, Scavenger receptor class B member 1; experiment: blockers of DiI-HDL lipid transfer via SR-BI – cell-based, ldlA[mSR-BI] CHO, DiI fluorescence, dry powder, set 10, dose response (AID 624029); type: functional
[3] = target: T2, Sentrin-specific protease 8 (Homo sapiens, UniProt Q96LD8); type: functional
T2 sequence (Q96LD8 whole entry): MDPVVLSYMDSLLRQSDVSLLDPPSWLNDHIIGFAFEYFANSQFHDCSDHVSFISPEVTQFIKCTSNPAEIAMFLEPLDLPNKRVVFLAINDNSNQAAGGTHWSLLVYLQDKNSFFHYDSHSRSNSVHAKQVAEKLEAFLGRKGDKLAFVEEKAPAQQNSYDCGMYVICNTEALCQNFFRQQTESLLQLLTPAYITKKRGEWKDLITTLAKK

[4] = target: T2, Sentrin-specific protease 8; type: functional; remark: listed apart in the source
[5] = target: T3, Corticotropin-releasing factor receptor 2/Corticotropin-releasing factor-binding protein (Homo sapiens, UniProt P24387+Q13324); experiment: activators of CRF receptor 2 with binding protein – uHTS hits, confirmation (AID 602473); type: functional; settings: read-out: EC50_Mean
T3 sequence (Q13324 whole entry): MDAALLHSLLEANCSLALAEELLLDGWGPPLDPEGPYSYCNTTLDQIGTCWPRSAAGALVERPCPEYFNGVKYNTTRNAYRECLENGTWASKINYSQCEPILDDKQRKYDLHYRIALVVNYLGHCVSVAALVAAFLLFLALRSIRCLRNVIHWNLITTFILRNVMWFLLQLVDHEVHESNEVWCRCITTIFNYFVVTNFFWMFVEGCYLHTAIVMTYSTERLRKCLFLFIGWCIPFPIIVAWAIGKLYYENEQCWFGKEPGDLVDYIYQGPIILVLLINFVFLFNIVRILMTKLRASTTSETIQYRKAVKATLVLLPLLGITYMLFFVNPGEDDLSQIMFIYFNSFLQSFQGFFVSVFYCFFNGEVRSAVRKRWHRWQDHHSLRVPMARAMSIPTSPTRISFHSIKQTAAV
T3 sequence (P24387 whole entry): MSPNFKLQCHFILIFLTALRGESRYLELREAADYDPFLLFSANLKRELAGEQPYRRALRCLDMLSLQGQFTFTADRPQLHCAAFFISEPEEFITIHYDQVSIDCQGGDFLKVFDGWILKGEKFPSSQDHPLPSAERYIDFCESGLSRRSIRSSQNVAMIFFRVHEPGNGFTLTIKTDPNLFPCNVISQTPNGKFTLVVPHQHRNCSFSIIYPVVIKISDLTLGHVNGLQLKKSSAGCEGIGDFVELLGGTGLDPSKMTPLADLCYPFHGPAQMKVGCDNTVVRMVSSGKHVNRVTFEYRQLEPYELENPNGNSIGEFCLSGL

[6] = target: T3, Corticotropin-releasing factor receptor 2/Corticotropin-releasing factor-binding protein; experiment: Dose Response confirmation of uHTS hits for small molecule antagonists of the CRF-binding protein and CRF-R2 receptor complex.; type: functional; settings: read-out: IC50_Mean
[7] = target: T4, Carboxy-terminal domain RNA polymerase II polypeptide A small phosphatase 1 (Homo sapiens, UniProt Q9GZU7); experiment: CTDSP1 inhibitors, concentration-response, biochemical, absorbance readout, ultra-high-throughput screen actives (AID 540297); type: functional
T4 sequence (Q9GZU7 whole entry): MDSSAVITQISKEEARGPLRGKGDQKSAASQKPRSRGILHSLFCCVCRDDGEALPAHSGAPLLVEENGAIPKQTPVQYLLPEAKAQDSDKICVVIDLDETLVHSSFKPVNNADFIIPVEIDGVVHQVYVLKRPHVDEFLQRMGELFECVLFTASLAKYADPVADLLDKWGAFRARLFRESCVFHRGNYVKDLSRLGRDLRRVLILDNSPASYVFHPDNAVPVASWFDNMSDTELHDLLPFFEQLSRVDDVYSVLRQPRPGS

[8] = blockers of CRF-binding protein–CRF-R2 complex – cell-based, uHTS hits, 384-well, dose response (AID 651639); type: functional, Homo sapiens; settings: read-out: IC50_Mean
[9] = target: T5, Beta-2 adrenergic receptor (Homo sapiens, UniProt P07550); experiment: ADRB2 activation measured by internalization – cell-based, FAP fluorogen, flow cytometry, cherry pick 1, dose response (AID 588763); type: functional
T5 sequence (P07550 whole entry): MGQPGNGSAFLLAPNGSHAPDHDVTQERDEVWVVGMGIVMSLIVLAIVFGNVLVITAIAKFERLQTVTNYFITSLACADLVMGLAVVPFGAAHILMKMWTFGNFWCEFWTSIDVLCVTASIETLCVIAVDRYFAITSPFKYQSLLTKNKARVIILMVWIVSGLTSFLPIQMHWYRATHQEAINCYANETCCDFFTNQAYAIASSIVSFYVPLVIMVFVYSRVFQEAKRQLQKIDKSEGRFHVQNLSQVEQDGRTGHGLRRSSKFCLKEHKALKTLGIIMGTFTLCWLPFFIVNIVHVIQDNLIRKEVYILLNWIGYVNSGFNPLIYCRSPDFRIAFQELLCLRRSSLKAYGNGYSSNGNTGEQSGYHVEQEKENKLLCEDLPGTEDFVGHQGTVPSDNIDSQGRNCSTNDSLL

[10] = target: Dual specificity protein phosphatase 3 (Homo sapiens, UniProt P51452); experiment: VHR phosphatase inhibition, dose response, selectivity assay for STEP inhibitor project, biochemical (AID 602374); type: functional; settings: read-out: IC50_Mean
Sequence of Dual specificity protein phosphatase 3 (P51452 whole entry): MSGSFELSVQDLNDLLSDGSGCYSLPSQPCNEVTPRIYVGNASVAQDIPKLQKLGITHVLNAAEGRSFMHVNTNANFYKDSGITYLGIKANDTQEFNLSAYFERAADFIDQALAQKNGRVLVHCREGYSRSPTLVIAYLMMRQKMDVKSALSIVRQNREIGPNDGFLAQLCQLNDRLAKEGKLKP

Cytochrome P450 2C9 = Cytochrome P450 2C9 (Homo sapiens, UniProt P11712)
Sequence of Cytochrome P450 2C9 (P11712 whole entry): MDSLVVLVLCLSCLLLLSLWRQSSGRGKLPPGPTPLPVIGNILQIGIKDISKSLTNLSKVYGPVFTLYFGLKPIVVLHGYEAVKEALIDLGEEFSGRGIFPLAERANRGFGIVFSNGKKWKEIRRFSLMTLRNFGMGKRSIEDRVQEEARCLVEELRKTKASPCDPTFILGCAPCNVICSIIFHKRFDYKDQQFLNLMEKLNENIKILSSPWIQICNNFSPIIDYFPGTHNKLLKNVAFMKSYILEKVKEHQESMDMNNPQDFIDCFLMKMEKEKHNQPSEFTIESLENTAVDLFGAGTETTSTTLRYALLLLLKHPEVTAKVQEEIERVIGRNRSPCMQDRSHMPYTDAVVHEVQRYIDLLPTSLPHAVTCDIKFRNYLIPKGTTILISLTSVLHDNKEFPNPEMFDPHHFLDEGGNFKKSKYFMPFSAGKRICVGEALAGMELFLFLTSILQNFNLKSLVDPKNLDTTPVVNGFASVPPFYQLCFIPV

[11] = target: T5, Beta-2 adrenergic receptor; experiment: Dose response for HTS for Beta-2AR agonists via FAP method from Powderset1.; type: functional
[12] = target: T6, Tyrosine-protein phosphatase non-receptor type 7 (Homo sapiens, UniProt P35236); experiment: HePTP tyrosine phosphatase activity blockers – biochemical, absorbance, leukemia target, primary screen (AID 521); type: functional
T6 sequence (P35236 whole entry): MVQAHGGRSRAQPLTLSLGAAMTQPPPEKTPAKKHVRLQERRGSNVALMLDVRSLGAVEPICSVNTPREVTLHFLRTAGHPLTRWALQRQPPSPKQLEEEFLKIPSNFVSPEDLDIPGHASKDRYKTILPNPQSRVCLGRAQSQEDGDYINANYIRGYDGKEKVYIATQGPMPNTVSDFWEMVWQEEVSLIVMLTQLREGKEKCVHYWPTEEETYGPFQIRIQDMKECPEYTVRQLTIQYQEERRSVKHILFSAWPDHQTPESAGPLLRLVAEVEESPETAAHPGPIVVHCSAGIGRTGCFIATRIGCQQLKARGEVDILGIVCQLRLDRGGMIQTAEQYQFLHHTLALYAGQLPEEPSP

[13] = target: Tyrosine-protein phosphatase non-receptor type 5 (Homo sapiens, UniProt P54829); experiment: PTPN5 enzyme inhibition – biochemical, fluorescence intensity, uHTS hits, confirmation (AID 602372); type: functional; settings: read-out: IC50_Mean
[14] = target: Protein-tyrosine kinase 2-beta (Homo sapiens, UniProt Q14289);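 note: potency of inhibitors of PYK2 kinase phosphorylation of poly-GT substrate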
[15] = target: Tyrosine-protein phosphatase non-receptor type 11 (Homo sapiens, UniProt Q06124); experiment: PTPN11 enzyme inhibitors – biochemical, selectivity assay for STEP inhibitor project, dose response (AID 602367); type: functional; settings: read-out: IC50_Mean
Sequence of Tyrosine-protein phosphatase non-receptor type 11 (Q06124 whole entry, the tested form may be a part): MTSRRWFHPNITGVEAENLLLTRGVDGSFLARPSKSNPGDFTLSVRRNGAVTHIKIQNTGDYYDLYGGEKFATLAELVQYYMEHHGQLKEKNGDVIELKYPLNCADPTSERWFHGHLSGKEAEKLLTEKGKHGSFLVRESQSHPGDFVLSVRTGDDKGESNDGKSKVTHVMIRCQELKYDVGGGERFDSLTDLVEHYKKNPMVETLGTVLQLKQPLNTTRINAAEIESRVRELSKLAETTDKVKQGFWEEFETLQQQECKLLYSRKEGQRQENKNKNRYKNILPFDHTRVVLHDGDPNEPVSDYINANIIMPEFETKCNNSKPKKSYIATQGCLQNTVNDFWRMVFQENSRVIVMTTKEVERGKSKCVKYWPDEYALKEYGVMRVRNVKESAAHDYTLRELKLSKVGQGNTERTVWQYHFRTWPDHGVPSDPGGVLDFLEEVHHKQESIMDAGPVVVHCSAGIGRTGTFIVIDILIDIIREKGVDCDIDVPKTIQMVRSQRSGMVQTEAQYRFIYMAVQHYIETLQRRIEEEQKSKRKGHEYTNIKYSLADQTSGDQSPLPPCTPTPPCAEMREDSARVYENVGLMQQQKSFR

[16] = target: Arf-GAP with SH3 domain, ANK repeat and PH domain-containing protein 1 (Homo sapiens, UniProt Q9ULH1); type: functional;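 note: biochemical fluorescence polarization dose–response screen measuring inhibition of ASAP1; ASAP1 GAP domain stimulating GTP hydrolysis by truncated human ARF1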
[17] = nonselective StAR promoter luciferase inhibitors – cell-based, luminescence, luciferase reporter, counter-screen for LRH-1 inverse agonist project, dose response (AID 651969); type: functional
[18] = target: Nuclear receptor subfamily 5 group A member 2 (Homo sapiens, UniProt O00482); type: functional, cell-based;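 note: HEK293T cells transfected with LRH-1 and a StAR promoter luciferase reporter; potency for inhibitors that lower LRH-1 driven reporter light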
Sequence of Nuclear receptor subfamily 5 group A member 2 (O00482 whole entry): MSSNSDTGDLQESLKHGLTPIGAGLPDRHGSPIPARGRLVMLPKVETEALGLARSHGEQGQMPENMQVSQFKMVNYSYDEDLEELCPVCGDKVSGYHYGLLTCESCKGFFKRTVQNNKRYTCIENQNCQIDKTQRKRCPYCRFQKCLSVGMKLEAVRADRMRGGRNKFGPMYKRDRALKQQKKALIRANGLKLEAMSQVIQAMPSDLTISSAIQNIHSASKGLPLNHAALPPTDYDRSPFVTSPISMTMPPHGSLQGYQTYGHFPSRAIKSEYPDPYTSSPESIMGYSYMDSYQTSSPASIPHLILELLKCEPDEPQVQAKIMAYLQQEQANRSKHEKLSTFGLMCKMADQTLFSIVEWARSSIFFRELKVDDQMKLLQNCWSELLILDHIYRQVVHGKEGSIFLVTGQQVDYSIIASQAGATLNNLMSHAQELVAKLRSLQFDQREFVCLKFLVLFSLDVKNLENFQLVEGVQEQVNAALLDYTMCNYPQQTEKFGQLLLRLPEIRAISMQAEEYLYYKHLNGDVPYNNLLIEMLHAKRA

Steroidogenic factor 1 = Steroidogenic factor 1 (Homo sapiens, UniProt Q13285); experiment: Counterscreen for inverse agonists of the liver receptor homolog-1 (LRH-1; NR5A2): Luminescence-based cell-based high throughput dose response assay to identify inverse agonists of the Steroidogenic Factor 1 Nuclear Receptor (SF1; NR5A1).; type: functional
[19] = target: T7, Sentrin-specific protease 1 (Homo sapiens, UniProt Q9P0U3); experiment: Dose response confirmation of small molecule inhibitors of the catalytic domain of the SUMO protease, SENP1 in a FRET assay.; type: functional; settings: read-out: IC50_Mean
T7 sequence (Q9P0U3 whole entry, the tested form may be a part): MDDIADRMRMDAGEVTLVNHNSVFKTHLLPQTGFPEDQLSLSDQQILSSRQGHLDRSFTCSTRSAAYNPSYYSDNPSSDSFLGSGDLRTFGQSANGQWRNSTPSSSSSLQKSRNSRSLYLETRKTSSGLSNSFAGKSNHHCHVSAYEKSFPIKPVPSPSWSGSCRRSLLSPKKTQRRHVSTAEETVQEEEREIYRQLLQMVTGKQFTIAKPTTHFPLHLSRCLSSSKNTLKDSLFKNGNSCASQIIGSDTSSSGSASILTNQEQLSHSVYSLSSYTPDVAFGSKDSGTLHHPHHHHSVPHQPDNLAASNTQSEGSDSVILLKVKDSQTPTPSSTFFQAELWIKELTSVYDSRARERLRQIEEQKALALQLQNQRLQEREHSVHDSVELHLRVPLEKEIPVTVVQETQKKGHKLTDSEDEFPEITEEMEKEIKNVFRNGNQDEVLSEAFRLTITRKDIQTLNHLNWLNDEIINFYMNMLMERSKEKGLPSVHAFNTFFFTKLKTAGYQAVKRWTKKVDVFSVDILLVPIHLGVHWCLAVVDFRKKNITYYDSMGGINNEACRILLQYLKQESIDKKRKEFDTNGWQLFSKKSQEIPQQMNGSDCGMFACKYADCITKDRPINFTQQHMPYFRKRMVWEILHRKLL

[20] = target: T7, Sentrin-specific protease 1; experiment: SENP1 catalytic domain blockers, concentration series – biochemical, kinetic FRET, dose response (AID 651697); type: functional; settings: read-out: IC50_Mean
[21] = viability of PTEN-deleted HCT116 cells – cell-based, HCT116 PTEN knockout, dose response (AID 1047); type: functional;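 note: HCT116 colon tumor cells with PTEN knocked out; cells exposed to compound for 60 hours before readout; potency for loss of cell viability measured by luminescence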
[22] = target: T5, Beta-2 adrenergic receptor; experiment: Dose response for HTS for Beta-2AR agonists via FAP method from Powderset3.; type: functional
[23] = target: Peroxisome proliferator-activated receptor gamma/Nuclear receptor coactivator 1 (Homo sapiens, UniProt P37231); type: functional;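 note: agonist potency as compounds enhance coactivator SRC-1 recruitment to PPARgamma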
[24] = target: Peroxisome proliferator-activated receptor gamma/Nuclear receptor coactivator 2 (Homo sapiens, UniProt P37231); type: functional;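 note: agonist potency for raising coactivator recruitment to the receptor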
[25] = target: Peroxisome proliferator-activated receptor gamma/Nuclear receptor coactivator 3 (Homo sapiens, UniProt P37231); type: functional;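 note: agonist potency for raising coactivator recruitment to the receptor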
[26] = viability of HCT116 lacking mutant beta-catenin – cell-based, human colon tumor, dose response (AID 1045); type: functional;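 note: HCT116 colon tumor cells with beta catenin knocked out; cells exposed to compound for 60 hours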
[27] = target: T8, Rac GTPase-activating protein 1 (Homo sapiens, UniProt Q9H0H5); experiment: blockers of MgcRacGAP-driven Rac1 GTP hydrolysis – biochemical, ADP Hunter fluorescence, primary and confirmatory, confirmation (AID 624330); type: functional
T8 sequence (Q9H0H5 whole entry): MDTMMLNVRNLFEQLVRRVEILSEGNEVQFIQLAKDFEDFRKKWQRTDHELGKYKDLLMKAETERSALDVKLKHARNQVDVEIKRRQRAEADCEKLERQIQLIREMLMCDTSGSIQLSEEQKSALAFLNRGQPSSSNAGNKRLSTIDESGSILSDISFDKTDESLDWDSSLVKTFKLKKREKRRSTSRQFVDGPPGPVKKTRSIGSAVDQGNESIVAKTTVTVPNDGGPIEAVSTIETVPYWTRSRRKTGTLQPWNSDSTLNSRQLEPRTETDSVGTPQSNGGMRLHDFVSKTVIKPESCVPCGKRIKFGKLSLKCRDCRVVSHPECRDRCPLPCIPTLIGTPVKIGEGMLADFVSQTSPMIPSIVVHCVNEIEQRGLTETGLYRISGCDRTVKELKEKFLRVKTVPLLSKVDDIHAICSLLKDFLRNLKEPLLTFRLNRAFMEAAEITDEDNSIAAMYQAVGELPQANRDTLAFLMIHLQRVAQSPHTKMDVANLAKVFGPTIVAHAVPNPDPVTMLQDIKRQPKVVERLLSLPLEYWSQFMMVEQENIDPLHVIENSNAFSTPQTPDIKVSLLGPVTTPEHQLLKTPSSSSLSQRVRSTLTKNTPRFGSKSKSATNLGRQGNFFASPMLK

[28] = target: Broad substrate specificity ATP-binding cassette transporter ABCG2 (Homo sapiens, UniProt Q9UNQ0); experiment: blockers of JC-1 export by ABCG2 – Ig-MXP3 cells, flow cytometry, dose response (AID 1690); type: functional
Sequence of Broad substrate specificity ATP-binding cassette transporter ABCG2 (Q9UNQ0 whole entry): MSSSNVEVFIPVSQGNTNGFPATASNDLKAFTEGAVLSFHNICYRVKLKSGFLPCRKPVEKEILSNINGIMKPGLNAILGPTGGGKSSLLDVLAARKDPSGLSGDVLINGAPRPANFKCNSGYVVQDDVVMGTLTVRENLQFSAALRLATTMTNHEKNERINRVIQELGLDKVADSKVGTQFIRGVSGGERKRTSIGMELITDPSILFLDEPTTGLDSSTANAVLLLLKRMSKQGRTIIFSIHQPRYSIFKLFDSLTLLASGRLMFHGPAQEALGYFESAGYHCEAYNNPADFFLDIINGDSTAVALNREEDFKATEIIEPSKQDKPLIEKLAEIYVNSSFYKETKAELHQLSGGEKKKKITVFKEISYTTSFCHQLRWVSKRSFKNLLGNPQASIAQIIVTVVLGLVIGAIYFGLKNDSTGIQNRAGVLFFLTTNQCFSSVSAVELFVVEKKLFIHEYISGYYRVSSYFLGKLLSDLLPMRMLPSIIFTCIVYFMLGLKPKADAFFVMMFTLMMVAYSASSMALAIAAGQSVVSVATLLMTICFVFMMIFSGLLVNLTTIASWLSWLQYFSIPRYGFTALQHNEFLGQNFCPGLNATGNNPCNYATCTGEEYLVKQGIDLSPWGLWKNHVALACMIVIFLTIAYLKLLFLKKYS

[29] = target: ATP-dependent translocase ABCB1 (Homo sapiens, UniProt P08183); experiment: inhibition of P-gp mediated JC-1 efflux – Jurkat-DNR cells, flow cytometry, dose response (AID 1689); type: functional
Sequence of ATP-dependent translocase ABCB1 (P08183 whole entry): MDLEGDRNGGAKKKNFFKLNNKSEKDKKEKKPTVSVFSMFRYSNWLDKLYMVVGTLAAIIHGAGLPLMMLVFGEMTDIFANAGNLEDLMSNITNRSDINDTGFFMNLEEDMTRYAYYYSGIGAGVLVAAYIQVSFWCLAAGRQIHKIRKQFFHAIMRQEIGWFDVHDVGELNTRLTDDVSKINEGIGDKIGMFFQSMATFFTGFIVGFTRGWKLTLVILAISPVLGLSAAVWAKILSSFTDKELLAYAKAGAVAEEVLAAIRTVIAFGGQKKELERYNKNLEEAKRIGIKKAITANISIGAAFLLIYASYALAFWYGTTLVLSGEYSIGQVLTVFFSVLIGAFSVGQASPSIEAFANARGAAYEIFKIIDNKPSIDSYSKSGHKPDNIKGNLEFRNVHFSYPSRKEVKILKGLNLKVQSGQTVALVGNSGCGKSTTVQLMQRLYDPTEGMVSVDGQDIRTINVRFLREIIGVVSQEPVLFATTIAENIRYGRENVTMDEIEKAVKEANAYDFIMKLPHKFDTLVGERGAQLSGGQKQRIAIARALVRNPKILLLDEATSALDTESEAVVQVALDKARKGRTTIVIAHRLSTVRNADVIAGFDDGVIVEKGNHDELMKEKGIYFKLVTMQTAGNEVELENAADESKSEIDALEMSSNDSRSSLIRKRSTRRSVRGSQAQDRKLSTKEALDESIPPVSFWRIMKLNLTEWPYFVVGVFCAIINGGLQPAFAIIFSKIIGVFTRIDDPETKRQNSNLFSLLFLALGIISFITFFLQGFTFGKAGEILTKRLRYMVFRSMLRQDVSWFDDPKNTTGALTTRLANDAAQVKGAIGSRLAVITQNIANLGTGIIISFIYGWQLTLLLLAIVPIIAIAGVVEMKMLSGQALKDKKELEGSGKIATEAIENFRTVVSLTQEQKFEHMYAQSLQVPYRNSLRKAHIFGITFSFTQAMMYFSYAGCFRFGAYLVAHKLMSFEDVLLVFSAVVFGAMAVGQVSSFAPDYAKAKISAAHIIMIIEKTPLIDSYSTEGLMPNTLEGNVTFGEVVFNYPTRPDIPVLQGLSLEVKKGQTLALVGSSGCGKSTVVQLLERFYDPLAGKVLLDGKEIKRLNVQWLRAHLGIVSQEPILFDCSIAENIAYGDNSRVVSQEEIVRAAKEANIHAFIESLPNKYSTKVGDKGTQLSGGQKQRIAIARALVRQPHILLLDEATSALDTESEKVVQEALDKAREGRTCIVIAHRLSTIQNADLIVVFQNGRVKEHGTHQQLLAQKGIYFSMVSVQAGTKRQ

[30] = target: ADP-ribosylation factor GTPase-activating protein 1 (Rattus norvegicus, UniProt Q62848); experiment: Fluorescence polarization-based biochemical high throughput dose response screening assay to identify inhibitors of ADP-ribosylation factor GTPase activating protein 1 (ARFGAP1).; type: functional

C[C@@H]1CN([C@H](C)CO)C(=O)c2cc(NC(=O)C3CCCCC3)ccc2O[C@H]1CN(C)S(=O)(=O)c1ccccc1Cl
AC50 [1]: 0.176 µM (active) | AC50 [2]: 0.202 µM (active)

COc1ccc(S(=O)(=O)Oc2ccc3cccc(N)c3c2)cc1
IC50 [3]: 9.11 µM (active) | IC50 [4]: 19.6 µM (active)

C=CCn1cnc2c(c1=O)c1nc3ccccc3nc1n2/N=C/c1cccc(OC)c1OC
EC50 [5]: > 53 µM (inactive) | IC50 [6]: 3.36 µM (active) | IC50 [7]: 10.1 µM (active) | IC50 [8]: 2.21 µM (active)

CCc1ccc(OCC(=O)Nc2ccc(-c3nc4ccccc4o3)c(O)c2)cc1
EC50 [9]: 0.476 µM (active) | IC50 [10]: 0.767 µM (active) | AC50 (Cytochrome P450 2C9): inconclusive | EC50 [11]: 0.261 µM (active) | IC50 [12]: 5.28 µM (active) | IC50 [13]: 3.98 µM (active) | IC50 [14]: > 69.5 µM (not active) | IC50 [15]: 0.368 µM (active)

COc1ccc(-n2nnc3c(=O)n(CC(=O)Nc4ccc5c(c4)OCCO5)cnc32)cc1OC
IC50 [16]: 11.8 µM (inactive)

COc1ccc(-n2c(N)c(C(=O)NCc3cccnc3)sc2=S)cc1
IC50 [17]: 35.9 µM (inactive) | IC50 [18]: 35.9 µM (inactive) | IC50 (Steroidogenic factor 1): 5.22 µM (active)

O=C(NC[C@@H]1CCCO1)c1cccc2c1C(=O)c1ccc(N3CCOCC3)cc1S2(=O)=O
IC50 [19]: 16.4 µM (active) | IC50 [20]: 12 µM (active)

CC(C)Cc1nc2sc3c(NCc4ccco4)ncnc3c2c2c1COC(C)(C)C2
EC50 [21]: 14.3 µM (active) | EC50 [9]: 0.615 µM (active) | EC50 [22]: 0.0238 µM (active) | EC50 [23]: > 79.4 µM (not active) | EC50 [24]: > 79.4 µM (not active) | EC50 [25]: > 79.4 µM (not active) | EC50 [26]: 14 µM (active)

COc1cc(C(=O)N/N=C/c2ccc(OC)c(CN3CCN(c4ccc(F)cc4)CC3)c2)ccc1O
IC50 [27]: 83.3 µM (active) | EC50 [28]: 0.76 µM (inactive) | EC50 [29]: 0.165 µM (active)

COc1ccc(NC(=O)Cn2nnc(C(=O)Nc3ccc(F)c(Cl)c3)c2N)cc1
IC50 [30]: 53.1 µM (inactive)
